Test results from patent publication US5198424A, “Functionally active selectin-derived peptides” (Board of Regents of the University of Oklahoma, priority 1992, dated 1993).
Like-named read-outs stand apart in the source and are kept apart here. One block for each substance: values may come before it. Ends that are not written are not given here.

Columns and labels:
GMP-140 [1] = target: T1, GMP-140 (Homo sapiens, UniProt P16109); assay: ELISA of binding of biotinylated monoclonal antibodies G1, G2, G3 to immobilized GMP-140 with soluble peptide; design: from tissue; host or cells: outdated human platelet packs (platelet lysate); details: peptide 1.5 mM; for remaining activity at 1500 µM: 2 h
T1 sequence (P16109 42-830): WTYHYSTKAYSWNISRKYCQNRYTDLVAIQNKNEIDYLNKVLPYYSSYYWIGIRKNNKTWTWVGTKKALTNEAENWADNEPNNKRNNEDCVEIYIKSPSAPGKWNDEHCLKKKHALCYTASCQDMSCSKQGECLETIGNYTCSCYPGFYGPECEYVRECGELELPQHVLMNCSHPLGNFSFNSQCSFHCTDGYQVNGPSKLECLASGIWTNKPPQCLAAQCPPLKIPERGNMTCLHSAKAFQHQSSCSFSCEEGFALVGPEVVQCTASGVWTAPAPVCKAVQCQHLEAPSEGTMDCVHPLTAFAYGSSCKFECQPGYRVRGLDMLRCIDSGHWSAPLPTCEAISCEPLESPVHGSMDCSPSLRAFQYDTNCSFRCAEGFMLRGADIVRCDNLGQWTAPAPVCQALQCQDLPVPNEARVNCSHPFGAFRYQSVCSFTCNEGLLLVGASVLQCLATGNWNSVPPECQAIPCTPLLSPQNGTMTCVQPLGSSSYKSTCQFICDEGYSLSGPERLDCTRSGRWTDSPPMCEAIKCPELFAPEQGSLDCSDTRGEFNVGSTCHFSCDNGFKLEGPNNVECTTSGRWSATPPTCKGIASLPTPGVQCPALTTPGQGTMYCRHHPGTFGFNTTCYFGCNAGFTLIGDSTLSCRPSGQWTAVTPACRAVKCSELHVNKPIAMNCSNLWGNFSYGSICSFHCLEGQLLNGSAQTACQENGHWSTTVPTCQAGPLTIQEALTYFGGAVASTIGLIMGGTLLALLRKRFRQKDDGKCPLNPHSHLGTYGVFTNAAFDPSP
Description: Based on competitive ELISAs with the purified protein, G1, G2, and G3 each recognize distinct or only partially overlapping epitopes. 1.5 mM peptide was added to biotinylated mAb at a concentration of 2.5 micrograms/ml, which were then added to the wells containing GMP-140, as described in example 1. Binding was measured by an ELISA with an avidin detection system.
The monoclonal antibodies were biotinylated as follows: to 0.5 ml of purified IgG antibody (1 mg/ml in PBS, pH 7.4) was added 50 μl of 3.2 mM N-hydroxysuccinimide biotin in dimethyl sulfoxide and 50 μl of 1 M NaHCO3. After a 2 hour incubation at room temperature in the dark, the reaction was stopped with 50 μl of 1 M NH4 Cl. The biotinylated antibody was then separated from other components by gel filtration on a PD-10 column equilibrated in PBS. The ELISA was performed as follows; all steps were performed at room temperature.
Biotinylated antibody (2.5 μg/ml) with or without 1.5 mM peptide was incubated with wells coated with GMP-140 as described in example 1. After a 2 hour incubation, the antibody was removed, the wells were washed, and 0.1 ml of horseradish peroxidase-conjugated stepavidin (Pierce), diluted 1:1000 in HBSS/HSA, was added for 30 min. The wells were then washed and 0.1 ml of peroxidase substrate (Pierce) was added for 15 min. The color reaction was read at 405 nm.

GMP-140 [2] = target: T1, GMP-140; assay: Neutrophil adhesion to purified GMP-140 immobilized on plastic wells (myeloperoxidase readout); type: cell-based; design: from tissue; host or cells: outdated human platelet packs (platelet lysate); details: for % Bound (neutrophils bound to immobilized GMP-140 in the presence of GMP-140-derived peptide): peptide 1.5 mM, cells bound with control C-terminal peptide 761-777 normalized to 100%
Source text: Peptides were screened for their ability to inhibit neutrophil adhesion to purified GMP-140 immobilized on plastic wells, using the assay described by Geng, et al., Nature 343, 757-760 (1990).
Human neutrophils are isolated from heparinized whole blood by density gradient centrifugation on Mono-Poly resolving media, Flow Laboratories. Neutrophil suspensions are greater than 98% pure and greater than 95% viable by trypan blue exclusion. For adhesion assays, neutrophils are suspended at a concentration of 2×10^6 cells/ml in Hanks' balanced salt solution containing 1.26 mM Ca^2+ and 0.81 mM Mg^2+ (HBSS, Gibco) with 5 mg/ml human serum albumin (HBSS/HSA). Adhesion assays are conducted in triplicate in 96-well microtiter plates, Corning, incubated at 4° C. overnight with 50 microliters of various protein solutions.
GMP-140 is plated at 5 micrograms/ml and the control proteins: human serum albumin (Alb), platelet glycoprotein IIb/IIIa (IIb), von Willebrand factor (vWF), fibrinogen (FIB), thrombomodulin (TM), gelatin (GEL) or human serum (HS), are added at 50 micrograms/ml. All wells are blocked for 2 h at 22° C. with 300 microliters HBSS containing 10 mg/ml HSA, then washed three times with HBSS containing 0.1% Tween-20 and once with HBSS. Cells (2×10^5 per well were added to the wells and incubated at 22° C. for 20 min. The wells were then filled with HBSS/HSA, sealed with acetate tape (Dynatech), and centrifuged inverted at 150 g for 5 min. After discarding nonadherent cells and supernates, the contents of each well are solubilized with 200 microliters 0.5% hexadecyltrimethylammonium bromide, Sigma, in 50 mM potassium phosphate, pH 6.0, and assayed for myeloperoxidase activity, Ley, et al., Blood 73, 1324-1330 (1989). The number of cells bound was derived from a standard curve of myeloperoxidase activity versus numbers of cells. Under all assay conditions, the cells released less than 5% of total myeloperoxidase and lactate dehydrogenase. Results are presented in Table I. 100% adhesion is that seen in the presence of the C-terminal peptide (amino acid residues 761-777 of GMP-140) as a negative control; this value is the same as controls in which neither peptide nor antibody is added to the cells. Inhibition is read as a lower percent adhesion, so that a value of 5% mean that 95% of the specific adhesion was inhibited.
Peptides from the lectin-like domain of GMP-140 were assayed for their ability to inhibit adhesion of neutrophils to immobilized GMP-140 in the assay described in example 1. Concentrations tested ranged from 0.1 mM to 1.5 mM.

human neutrophils = assay: Binding of 125I[GMP-140] to human neutrophils
Source text: This receptor is believed to be a glycoprotein containing sialic acid and other oligosaccharides that are recognized by the lectin domain of GMP-140. Using the assay described in example 1, and an assay in which ^125 I[GMP-140] binds specifically, saturably and reversibly to human neutrophils, as described by Moore and McEver, Clin.Res. 38, 364A (1990), certain critical structural features of the ligand (or, perhaps more accurately, "counter-receptor") for GMP-140 on human neutrophils have been defined.

[3] = mAb G1 2.5 micrograms/ml, read-out: % Binding of Biotinylated MAbs G1
[4] = mAb G2 2.5 micrograms/ml, read-out: % Binding of Biotinylated MAbs G2
[5] = mAb G3 2.5 micrograms/ml, read-out: % Binding of Biotinylated MAbs G3

% Binding of Biotinylated MAbs G1 (GMP-140 [1]; mAb G1 2.5 micrograms/ml): 95%
% Binding of Biotinylated MAbs G2 (GMP-140 [1]; mAb G2 2.5 micrograms/ml): 99%
% Binding of Biotinylated MAbs G3 (GMP-140 [1]; mAb G3 2.5 micrograms/ml): 94%
% Bound (neutrophils bound to immobilized GMP-140 in the presence of GMP-140-derived peptide) (GMP-140 [2]): 22%
Substance: AENWADNEPNNKRNNED [73-89]

remaining activity at 1500 µM (GMP-140 [1]; [3]): 94%
remaining activity at 1500 µM (GMP-140 [1]; [4]): 92%
remaining activity at 1500 µM (GMP-140 [1]; [5]): 108%
Substance: YPGFYGPECEYVRE [EGF 145-158]

% Bound (neutrophils bound to immobilized GMP-140 in the presence of GMP-140-derived peptide) (GMP-140 [2]): 68%
Substance: ADNEPNNKRNNED [77-89]

% Bound (neutrophils bound to immobilized GMP-140 in the presence of GMP-140-derived peptide) (GMP-140 [2]): 86%
Substance: RKNNKT [54-59]

% Bound (neutrophils bound to immobilized GMP-140 in the presence of GMP-140-derived peptide) (GMP-140 [2]): 63%
Substance: RKNNKTW [54-60]

% Binding of Biotinylated MAbs G1 (GMP-140 [1]; mAb G1 2.5 micrograms/ml): 106%
% Binding of Biotinylated MAbs G2 (GMP-140 [1]; mAb G2 2.5 micrograms/ml): 125%
% Binding of Biotinylated MAbs G3 (GMP-140 [1]; mAb G3 2.5 micrograms/ml): 104%
% Bound (neutrophils bound to immobilized GMP-140 in the presence of GMP-140-derived peptide) (GMP-140 [2]): 15%
Substance: RKNNKTWTWVGTKKALTNE [54-72]

inhibition of neutrophil adhesion to immobilized GMP-140 (in words) (GMP-140 [2]): inhibited adhesion
inhibition of neutrophil adhesion to immobilized GMP-140 (in words) (GMP-140 [2]; listed as 66 to 78): very active
% Bound (neutrophils bound to immobilized GMP-140 in the presence of GMP-140-derived peptide) (GMP-140 [2]): 6%
Substance: 66-78: GMP-140 lectin domain amino acids 66-78, overlapping peptide; by b139 alignment KKALTENAENWAD
inhibition of neutrophil binding to immobilized GMP-140, dependence on concentration (GMP-140 [2]; FIG. 3, 0.1 mM to 1.5 mM peptide): inhibited binding in a dose-dependent manner

% Bound (neutrophils bound to immobilized GMP-140 in the presence of GMP-140-derived peptide) (GMP-140 [2]): 20%
Substance: NRYTDLVAIQ [21-30]

% Bound (neutrophils bound to immobilized GMP-140 in the presence of GMP-140-derived peptide) (GMP-140 [2]): 104%
Substance: PNNKRNNED [81-89]

Substance: neuraminidase: neuraminidase purified from Vibrio cholera [reference compound]
binding of 125I[GMP-140] to human neutrophils (in words) (human neutrophils): abolished
adhesion of neutrophils to immobilized GMP-140 after treatment of neutrophils (in words) (GMP-140 [2]; neutrophils treated with the enzyme): abolished

remaining activity at 1500 µM (GMP-140 [1]; [3]): 97%
remaining activity at 1500 µM (GMP-140 [1]; [4]): 104%
remaining activity at 1500 µM (GMP-140 [1]; [5]): 109%
Substance: LETIGNYT [EGF 134-141]

% Bound (neutrophils bound to immobilized GMP-140 in the presence of GMP-140-derived peptide) (GMP-140 [2]): 30%
Substance: YTDLVAIQNKNE [23-34]

% Bound (neutrophils bound to immobilized GMP-140 in the presence of GMP-140-derived peptide) (GMP-140 [2]): 41%
Substance: AENWADNEPNNKR [73-85]

remaining activity at 1500 µM (GMP-140 [1]; [3]): 98%
remaining activity at 1500 µM (GMP-140 [1]; [4]): 100%
remaining activity at 1500 µM (GMP-140 [1]; [5]): 108%
Substance: LKKKHAL [LECTIN 110-116]

% Bound (neutrophils bound to immobilized GMP-140 in the presence of GMP-140-derived peptide) (GMP-140 [2]): 69%
Substance: NKTWTWV [57-63]

remaining activity at 1500 µM (GMP-140 [1]; [3]): 107%
remaining activity at 1500 µM (GMP-140 [1]; [4]): 96%
remaining activity at 1500 µM (GMP-140 [1]; [5]): 111%
Substance: CSDTRGEFNVGST [REPEATS 544-556, reference compound]

% Bound (neutrophils bound to immobilized GMP-140 in the presence of GMP-140-derived peptide) (GMP-140 [2]): 92%
Substance: CQNRYTDL [19-26]

remaining activity at 1500 µM (GMP-140 [1]; [3]): 97%
remaining activity at 1500 µM (GMP-140 [1]; [4]): 93%
remaining activity at 1500 µM (GMP-140 [1]; [5]): 96%
Substance: VEIYIKSPSAPGKWNDEH [LECTIN 91-108]

% Bound (neutrophils bound to immobilized GMP-140 in the presence of GMP-140-derived peptide) (GMP-140 [2]): 91%
Substance: VAIQNKNE [27-34]

adhesion of neutrophils to immobilized GMP-140 abolished (GMP-140 [2]; neutrophils treated with the protease): Greater than 70%
Substance: elastase [reference compound]
